Laboratory results as given in ChEMBL document CHEMBL1154261, “Halogenated fatty acid amides and cyclic depsipeptides from an eastern Caribbean collection of the cyanobacterium Lyngbya majuscula” (J Nat Prod, 2009).
Starred links: 1 amine or outer side, 2 acyl side, 3 side chain; linkers in the order of their positions; H or OH if unused. Non-standard residues stand in square brackets, D forms with d. Residues, ends and D or L forms follow the SMILES beside them. X1 = CCC[C@@H](N[*:1])[C@H](C)C(=O)[*:2]; Met(O2) = CS(=O)(=O)CC[C@H](N)C(=O)O; dNMeF = CN[C@H](Cc1ccccc1)C(=O)O; NMeL = CN[C@@H](CC(C)C)C(=O)O; dHiv = CC(C)[C@@H](O)C(=O)O

Legend:
[1] = tested on: HEK293; assay: Cytotoxicity against HEK293 cells after 48 hrs by resazurin conversion-based fluorometric assay; assay type: cell-based; settings: Homo sapiens, HEK293, 48 h
[2] = tested on: HEK293; assay: Cytotoxicity against HEK293 cells at 400 nM after 48 hrs by resazurin conversion-based fluorometric assay; assay type: cell-based; settings: human, hek293, 48 h, 0.4 µM
[3] = tested on: Spodoptera exigua; assay: Antilepidopteran activity against beet armyworm neonates assessed as mortality rate at 1.0 mg/ml after 5 days; assay type: functional

SMILES: CCC[C@H]1NC(=O)[C@H](C)NC(=O)[C@H](CC(C)C)N(C)C(=O)[C@H](Cc2ccccc2)NC(=O)[C@H](CCS(C)(=O)=O)NC(=O)[C@@H](Cc2ccccc2)N(C)C(=O)[C@@H](C(C)C)OC(=O)[C@H]1C [CARRIEBOWMIDE SULFONE] (cyclo(A[X1][dHiv][dNMeF][Met(O2)]F[NMeL]))
- IC50 [1]: > 50 µM

SMILES: COc1cccc2c1C(=O)c1c(O)c3c(c(O)c1C2=O)C[C@@](O)(C(C)=O)C[C@@H]3O[C@H]1C[C@H](N)[C@H](O)[C@H](C)O1 [DAUNORUBICIN]
- Activity [2]: 82%

SMILES: C[C@@H]1C(=O)O[C@@H](C(C)(C)O)c2nc(cs2)C(=O)OC(C)(C)[C@H](O)c2nc(cs2)C(=O)O[C@H]1CCCC(C)(Cl)Cl [DEACETYLHECTOCHLORIN]
- IC50 [1]: 6 µM

SMILES: C=CCCC(C)C(=O)C(C)CC(C)NC(=O)CCC/C(=C/Cl)CCC (stereo not drawn) [GRENADAMIDE B]
- IC50 [1]: ≥ 100 µM
- Activity [3]: 38%

SMILES: CCC/C(=C\Cl)CCCC(=O)NC(C)CC(C)C(=O)C(C)CC/C=C/Cl (stereo not drawn) [GRENADAMIDE]
- IC50 [1]: ≥ 100 µM
- Activity [3]: 50%

SMILES: CC(CC(=O)N(C)[C@@H]1C(=O)N(C)[C@@H](C(C)C)C(=O)N[C@H](C)C(=O)N(C)[C@@H](C)C(=O)N(C)[C@H](Cc2ccccc2)C(=O)N[C@@H](C)C(=O)O[C@@H]1C)C(Cl)Cl (stereo partly drawn) [ITRALAMIDE A]
- IC50 [1]: 54 µM
